Where two headings read alike, the source gives them in different places.
Columns and labels:
[1] = system: Plasmodium falciparum mitogen-associated protein kinase 2 (MAPK2/MAP2); assay: MAPK2 Kinase-Glo ATP-consumption screen; assay type: biochemical; settings: concentrations of 10–30 μM
Procedure: Biochemical assays were performed in white 384-well plates (Nunc). Liquid transfers were done manually with 8-channel pipets. Compounds were initially tested in a single-point screen (final concentration 1 μM). […] The catalytic activity of each kinase was considered proportional to ATP consumed, as determined from measurements of residual [ATP] with the luciferase-based reagent Kinase-Glo (Promega) following incubation. Luminescence (proportional to residual [ATP]) was measured on the plate readers FLx800 (BioTek Instruments, Winooski, VT, USA) and MicroBeta^2 (PerkinElmer, Waltham, MA, USA). Incubation times were chosen to ensure near-complete ATP depletion in the absence of inhibition, thus maximizing the difference in signal between inhibited and uninhibited wells.
Final concentrations were 1 μM ATP, 0.5 mM DTT, 1 mM MgCl2, 0.5 mg/mL BSA, and 10 μg/ml MAP2 in a buffer of 50 mM HEPES (pH 7.0). 0.5 mg/mL histone III-S served as the substrate; 100 μM AMP-PNP, an ATP analog, was used as a control inhibitor. Incubation time was 4 hours.

[2] = biological target: T1, Plasmodium falciparum calcium-dependent protein kinase 4 (CDPK4) (Plasmodium falciparum, UniProt Q8IBS5); assay: CDPK4 Kinase-Glo ATP-consumption screen and dose-response; assay type: biochemical; settings: hits below 1 uM
T1 construct: 6-Histidine (N); made in house
T1 sequence (Q8IBS5 1-528): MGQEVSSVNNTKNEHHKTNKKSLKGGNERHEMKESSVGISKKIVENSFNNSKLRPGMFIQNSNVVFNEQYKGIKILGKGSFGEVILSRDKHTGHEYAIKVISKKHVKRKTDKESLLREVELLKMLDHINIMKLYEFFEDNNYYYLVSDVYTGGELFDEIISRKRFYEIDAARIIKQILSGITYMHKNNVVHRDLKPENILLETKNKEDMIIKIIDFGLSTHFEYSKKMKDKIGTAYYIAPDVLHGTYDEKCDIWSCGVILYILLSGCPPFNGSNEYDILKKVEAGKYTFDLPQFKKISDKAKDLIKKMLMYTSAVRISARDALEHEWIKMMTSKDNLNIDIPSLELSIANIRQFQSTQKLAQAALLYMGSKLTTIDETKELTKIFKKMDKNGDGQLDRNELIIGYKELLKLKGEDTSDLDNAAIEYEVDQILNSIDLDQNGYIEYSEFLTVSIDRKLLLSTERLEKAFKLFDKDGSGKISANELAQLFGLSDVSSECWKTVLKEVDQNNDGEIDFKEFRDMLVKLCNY
Summary of the method: (§1)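 Single-point testing used 1 μM final compound, then dose-response, against CDPK4 and CDPK1 with Syntide-2 (40 μM) as substrate. After 90 min, reactions were halted by 5 mM EGTA, and kinase activity was inferred from depleted ATP via Kinase-Glo luminescence.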

[3] = biological target: T2, Plasmodium falciparum protein kinase 6 (PK6) (Plasmodium falciparum, UniProt Q8IDW1); assay: biochemical; settings: hits below 1 uM; read-out: PK6 IC50
T2 construct: 6-Histidine (N); made in house
T2 sequence (Q8IDW1 1-305): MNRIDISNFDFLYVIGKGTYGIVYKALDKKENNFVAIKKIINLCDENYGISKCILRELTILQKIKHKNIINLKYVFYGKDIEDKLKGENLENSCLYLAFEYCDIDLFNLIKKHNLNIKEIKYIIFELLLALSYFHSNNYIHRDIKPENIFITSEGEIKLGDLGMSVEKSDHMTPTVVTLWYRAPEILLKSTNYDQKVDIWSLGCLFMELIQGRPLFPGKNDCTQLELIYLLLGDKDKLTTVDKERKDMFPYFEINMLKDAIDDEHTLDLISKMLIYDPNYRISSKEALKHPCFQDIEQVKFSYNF

P. falciparum 3D7 cells = settings: cited from earlier work
PKG [4] = biological target: T3, PKG (Plasmodium falciparum, UniProt Q8I719); assay: PKG IC50 (supplementary data file); assay type: biochemical
T3 sequence (Q8I719 whole entry): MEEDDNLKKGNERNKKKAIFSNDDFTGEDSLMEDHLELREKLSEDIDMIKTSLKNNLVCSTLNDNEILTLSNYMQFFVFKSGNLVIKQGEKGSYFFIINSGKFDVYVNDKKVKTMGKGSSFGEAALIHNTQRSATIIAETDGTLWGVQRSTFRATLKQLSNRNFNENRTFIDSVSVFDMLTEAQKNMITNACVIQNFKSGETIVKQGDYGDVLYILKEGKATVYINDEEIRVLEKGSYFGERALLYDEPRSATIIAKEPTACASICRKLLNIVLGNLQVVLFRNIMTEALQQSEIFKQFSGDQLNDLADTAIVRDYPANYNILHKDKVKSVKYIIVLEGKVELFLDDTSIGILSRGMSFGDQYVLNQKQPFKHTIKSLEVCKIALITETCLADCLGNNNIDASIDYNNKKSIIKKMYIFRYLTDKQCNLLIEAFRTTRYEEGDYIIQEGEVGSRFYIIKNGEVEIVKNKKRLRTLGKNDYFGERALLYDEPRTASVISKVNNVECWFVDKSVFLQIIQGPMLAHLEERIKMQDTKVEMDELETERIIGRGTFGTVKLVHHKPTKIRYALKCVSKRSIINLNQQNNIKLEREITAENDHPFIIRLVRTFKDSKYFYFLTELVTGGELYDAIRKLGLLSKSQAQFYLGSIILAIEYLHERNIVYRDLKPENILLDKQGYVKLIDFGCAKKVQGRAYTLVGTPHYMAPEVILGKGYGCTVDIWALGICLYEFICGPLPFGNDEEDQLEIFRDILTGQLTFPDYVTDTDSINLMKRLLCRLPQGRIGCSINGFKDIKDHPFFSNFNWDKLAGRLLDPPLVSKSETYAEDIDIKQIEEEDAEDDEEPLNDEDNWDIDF
From the text: (§2) Supplement pone.0149996.s003.xls, sheet "combined_1_sorted"

DD2 [5] = system: DD2; design: method as in F.J. Gamo et al., Nature 2010; settings: downloaded from ChEMBL, ref F.J. Gamo et al., Nature 2010; cited from earlier work
HepG2 cells = settings: cited from earlier work
3D7 PFLDH [6] = system: 3D7 PFLDH; design: method as in F.J. Gamo et al., Nature 2010; concentration or dose not given beside the values; settings: downloaded from ChEMBL, ref F.J. Gamo et al., Nature 2010; cited from earlier work
[7] = biological target: T4, Plasmodium falciparum calcium-dependent protein kinase 1 (CDPK1) (Plasmodium falciparum, UniProt P62344); assay: biochemical; design: Kinase-Glo luminescence ATP depletion, Syntide-2 substrate, 10 uM ATP, CDPK1 or CDPK4
T4 construct: 6-Histidine (N); made in house
T4 sequence (P62344 whole entry): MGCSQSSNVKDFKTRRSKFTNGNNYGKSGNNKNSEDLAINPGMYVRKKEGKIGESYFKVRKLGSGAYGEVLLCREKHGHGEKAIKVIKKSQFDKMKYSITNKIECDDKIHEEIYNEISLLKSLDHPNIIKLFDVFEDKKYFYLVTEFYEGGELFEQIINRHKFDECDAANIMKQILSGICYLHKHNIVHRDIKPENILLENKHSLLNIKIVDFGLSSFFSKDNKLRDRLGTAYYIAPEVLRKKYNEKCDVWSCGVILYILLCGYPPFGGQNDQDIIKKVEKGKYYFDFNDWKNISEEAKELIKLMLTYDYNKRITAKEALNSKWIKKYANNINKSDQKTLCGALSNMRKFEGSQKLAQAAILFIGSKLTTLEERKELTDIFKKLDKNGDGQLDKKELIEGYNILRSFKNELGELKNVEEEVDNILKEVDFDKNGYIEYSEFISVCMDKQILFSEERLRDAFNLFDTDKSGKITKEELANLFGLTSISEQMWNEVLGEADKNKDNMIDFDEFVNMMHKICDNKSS
Procedure: Biochemical assays were performed in white 384-well plates (Nunc). Liquid transfers were done manually with 8-channel pipets. Compounds were initially tested in a single-point screen (final concentration 1 μM). […] (In the PK6 and PK7 screens, Z’ factors were suboptimal, so apparent hits were retested at 1 μM before proceeding with dose-response tests.) All incubations were at room temperature (~20°C). The catalytic activity of each kinase was considered proportional to ATP consumed, as determined from measurements of residual [ATP] with the luciferase-based reagent Kinase-Glo (Promega) following incubation. Luminescence (proportional to residual [ATP]) was measured on the plate readers FLx800 (BioTek Instruments, Winooski, VT, USA) and MicroBeta^2 (PerkinElmer, Waltham, MA, USA). Incubation times were chosen to ensure near-complete ATP depletion in the absence of inhibition, thus maximizing the difference in signal between inhibited and uninhibited wells. […] 40 μM Syntide-2 was used as a substrate; BKI-1 [14] was used as a control inhibitor, while reaction mixtures lacking Syntide-2 were included as an additional negative control. Incubation time was 90 minutes. Reactions were terminated by adding excess EGTA (5 mM), which sequesters Ca^2+ and halts calcium-dependent kinase activity.

3D7 PFLDH [8] = system: 3D7 PFLDH; design: method as in F.J. Gamo et al., Nature 2010; settings: downloaded from ChEMBL ref F.J. Gamo et al., Nature 2010; cited from earlier work
PKG [9] = biological target: T3, PKG; assay: PKG IC50 (supplementary data file of hits); assay type: biochemical
From the text: as §2

DD2 [10] = system: DD2; design: method as in F.J. Gamo et al., Nature 2010; settings: P. falciparum Dd2; downloaded from ChEMBL ref F.J. Gamo et al., Nature 2010; cited from earlier work
[11] = biological target: T4, Plasmodium falciparum calcium-dependent protein kinase 1 (CDPK1); assay: CDPK1 Kinase-Glo ATP-consumption screen and dose-response; assay type: biochemical; settings: hits below 1 uM; read-out: CDPK1 IC50
Summary of the method: as §1

3D7 PFLDH [12] = system: 3D7 PFLDH; design: method as in downloaded from ChEMBL; settings: ref downloaded from ChEMBL; cited from earlier work
[13] = biological target: Plasmodium falciparum protein kinase 7 (PK7) (Plasmodium falciparum, UniProt Q7YTF7); assay: PK7 Kinase-Glo intrinsic ATPase (autophosphorylation) screen and dose-response; assay type: biochemical; settings: hits below 1 uM
Sequence of Plasmodium falciparum protein kinase 7 (PK7) (Q7YTF7 entry or part of it): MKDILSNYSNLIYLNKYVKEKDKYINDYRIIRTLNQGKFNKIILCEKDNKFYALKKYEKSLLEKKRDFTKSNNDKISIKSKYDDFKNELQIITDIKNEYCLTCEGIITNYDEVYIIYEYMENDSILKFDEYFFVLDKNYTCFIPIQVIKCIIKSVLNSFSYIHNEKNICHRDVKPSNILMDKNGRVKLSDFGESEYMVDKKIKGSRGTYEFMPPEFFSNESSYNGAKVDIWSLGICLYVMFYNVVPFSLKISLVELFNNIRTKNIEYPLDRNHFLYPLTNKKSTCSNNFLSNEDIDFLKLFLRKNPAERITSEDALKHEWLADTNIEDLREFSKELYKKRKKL
Procedure: Biochemical assays were performed in white 384-well plates (Nunc). Liquid transfers were done manually with 8-channel pipets. Compounds were initially tested in a single-point screen (final concentration 1 μM). […] (In the PK6 and PK7 screens, Z’ factors were suboptimal, so apparent hits were retested at 1 μM before proceeding with dose-response tests.) All incubations were at room temperature (~20°C). The catalytic activity of each kinase was considered proportional to ATP consumed, as determined from measurements of residual [ATP] with the luciferase-based reagent Kinase-Glo (Promega) following incubation. Luminescence (proportional to residual [ATP]) was measured on the plate readers FLx800 (BioTek Instruments, Winooski, VT, USA) and MicroBeta^2 (PerkinElmer, Waltham, MA, USA). Incubation times were chosen to ensure near-complete ATP depletion in the absence of inhibition, thus maximizing the difference in signal between inhibited and uninhibited wells.
Final concentrations were 1 μM ATP, 2 mM DTT, 20 mM MgCl2, 2 mM MnCl2, 0.01% BSA, and 6 μg/ml PK7 in a buffer of 20 mM Tris-HCl (pH 7.5). The enzyme itself was the only substrate present (since autophosphorylation occurs); 100 μM 1NA-PP1 [24] was used as a control inhibitor. Incubation time was 3 hours.

DD2 [14] = system: DD2; design: method as in downloaded from ChEMBL; settings: ref downloaded from ChEMBL; cited from earlier work
[15] = 3D7, downloaded from ChEMBL, ref F.J. Gamo et al., Nature 2010
[16] = P. falciparum 3D7, downloaded from ChEMBL ref F.J. Gamo et al., Nature 2010
[17] = HepG2 cells, downloaded from ChEMBL ref F.J. Gamo et al., Nature 2010
[18] = 3D7, ref downloaded from ChEMBL

| SMILES | Inhibition of MAPK2 (tested as possible control inhibitor) [1] | IC50 [2] | IC50 [3] | PCT_INHIB_3D7_PFLDH (3D7 PFLDH [8]) | IC50 (PKG [9]) | PCT_IHB_3D7 (P. falciparum 3D7 cells; [16]) | pXC50_3D7 (P. falciparum 3D7 cells; [16]) | PCT_INHB_DD2 (DD2 [10]) | IC50 [11] | PCT_INHIB_HEPG2 (HepG2 cells; [17]) | also measured |
| --- | --- | --- | --- | --- | --- | --- | --- | --- | --- | --- | --- |
| Cc1ccc(-n2nc(C(C)(C)C)cc2NC(=O)Nc2ccc(OCCN3CCOCC3)c3ccccc23)cc1 [BIRB796] | None gave consistent inhibition | – | – | – | – | – | – | – | – | – | – |
| O=C1Nc2ccc3ncsc3c2/C1=C/Nc1ccc(S(=O)(=O)Nc2ccccn2)cc1 [GW8510] | None gave consistent inhibition | – | – | – | – | – | – | – | – | – | – |
| Cc1cc(Nc2ncc(C#N)c(Nc3ccccc3C(N)=O)n2)ccc1N1CCN(C)CC1.Cl [TCMDC-134115] | – | 89 nM | 54 nM | – | – | – | – | – | – | – | PCT_IHB_3D7 (P. falciparum 3D7 cells; [15]): 94%; pXC50_3D7 (P. falciparum 3D7 cells; [15]): 8.064; IC50 (PKG [4]): 63 nM; PCT_INHB_DD2 (DD2 [5]): 94%; PCT_INHIB_HEPG2 (HepG2 cells; HepG2, downloaded from ChEMBL, ref F.J. Gamo et al., Nature 2010): 99%; PCT_INHIB_3D7_PFLDH (3D7 PFLDH [6]): 0%; IC50 [7]: 10.4 nM |
| CC(c1cccc(Nc2nccc(-c3c(-c4cccc(NC(=O)c5c(F)cccc5F)c4)nn4ncccc34)n2)c1)S(C)(=O)=O (stereo not drawn) [TCMDC-135696] | – | 24 nM | 375 nM | 4 | > 10000 nM | 98 | 7.341 | 98 | 95 nM | 79 | – |
| CS(=O)(=O)Cc1ccc(Nc2nccc(-c3c(-c4cccc(C(=O)Nc5c(F)cccc5F)c4)nn4ccccc34)n2)cc1 [TCMDC-135742] | – | 65 nM | 105 nM | 0 | > 10000 nM | 96 | 6.274 | 92 | 50 nM | 85 | – |
| CS(=O)(=O)Cc1ccc(Nc2nccc(-c3c(-c4cccc(NC(=O)C5CCCCC5)c4)nn4ncccc34)n2)cc1 [TCMDC-135812] | – | 67 nM | 139 nM | 0 | > 10000 nM | 98 | 6.697 | 99 | 37 nM | 31 | – |
| CCN(CC)CCCOc1ccc(Nc2nccc(-c3c(-c4cccc(NC(=O)c5c(F)cccc5F)c4)nn4ccccc34)n2)cc1F [TCMDC-135920] | – | 86 nM | 302 nM | 0 | 131 nM | 100 | 6.39 | 99 | 429 nM | 86 | – |
| O=C(O)c1ccc(-c2cnc3ccc(NC4CCC(O)CC4)nn23)cc1 (stereo not drawn) [TCMDC-136692] | – | – | – | – | – | – | – | – | – | – | PCT_IHB_3D7 (P. falciparum 3D7 cells; [18]): 98; pXC50_3D7 (P. falciparum 3D7 cells; [18]): 6.002; PCT_INHIB_3D7_PFLDH (3D7 PFLDH [12]): 3; IC50 [13]: 419 nM; PCT_INHB_DD2 (DD2 [14]): 90; PCT_INHIB_HEPG2 (HepG2 cells; HEPG2, ref downloaded from ChEMBL): 9 |
| CC(C)(CN)c1nc(-c2ccc(Cl)c(O)c2)c(-c2ccncc2)[nH]1.Cl [TCMDC-140369] | – | – | – | 0 | – | 97 | 6.122 | 98 | – | 34 | IC50 [7]: 10.5 nM |
| NC1=NC(=O)/C(=C2\CCNC(=O)c3[nH]c(Br)cc32)N1 [hymenialdisine] | None gave consistent inhibition | – | – | – | – | – | – | – | – | – | – |
